Assay results reported in patent US12257347B2, “Pharmaceutical composition comprising meta arsenite and method of manufacture” (KOMIPHARM INT[…] PTY LTD, priority 2018, dated 2025).

Columns and labels:
[1] = Solubility of the supplied SMA drug substance; format: physicochemical
Excerpt: (§1) Sodium meta-arsenite (“SMA”) was obtained from Sigma Aldrich Fine Chemicals. […]

[2] = Hygroscopicity (moisture uptake) of the supplied SMA drug substance; format: physicochemical
Excerpt: as §1

O=[As][O-].[Na+] [SMA, sodium meta-arsenite]
Solubility [1]: Approx. 950 mg/mL | Hygroscopicity (moisture uptake) ([2]; at 75% RH): ~40% at 75% RH | Hygroscopicity (moisture uptake) ([2]; at 80% RH): >80% at 80% RH | Hygroscopicity (moisture uptake) ([2]; at 90% RH): >130% at 90% RH
